These results are taken from PubChem BioAssay AID489027 (Sanford-Burnham Center for Chemical Genomics, 2010).

Active and inactive are the calls of the source. No rule for the calls is given here.

In general, EC50 refers to the concentration that produces a half-maximal response.

This experiment addresses UPR counterscreen luciferase reporter, luminescence. The experiment in a line: activators in UPR counterscreen luciferase reporter, dose response, counter-screen for adaptive UPR activator project, cell-based, luminescence (AID 489027). In general terms: A counterscreen serves to expose hits that act by an unwanted route or on another target.
`CCNC(=O)c1c(NC(=O)c2cc(-c3cc(C)ccc3O)n[nH]2)sc2c1CCCC2`: the EC50 is > 80 µM (inactive).

For the compound `O=c1cc(C(Cl)(Cl)Cl)oc2c1ccc1ccccc12`, the EC50 is > 80 µM (inactive).

As for `NS(=O)(=O)c1ccc(N=Cc2c(O)n(C3CCCCC3)c(=O)n(C3CCCCC3)c2=O)cc1`, the concentration giving a half-maximal response (EC50) was 14.6 µM.

With `O=C(Cn1c2ccccc2c(=O)c2cc([N+](=O)[O-])ccc21)Nc1ccccc1Cl`, the EC50 entry was “inactive”.

Regarding `CC1=CC(C)(C)N2C(=O)C(=O)c3cc(OC(=O)c4ccco4)cc1c32`, the EC50 entry was “inactive”.

Take `CCC(C)Nc1nc(N)c([N+](=O)[O-])c(NC2CCCCC2)n1` (configuration not stated): the EC50 entry is “inactive”.

As to `CCC/C(=N/Nc1ccc(Cl)cc1)c1cnnc(-c2ccccc2)n1`, the EC50 entry is “inactive”.

With `O=c1cc(CN2CCN(c3ccc(F)cc3)CC2)c2cc3c(cc2o1)CCCC3`, the EC50 is 8.79 µM.

Consider `CC(C)CC(NC(=O)c1ccc(Cl)cc1)C(=O)OCC(=O)c1ccc2c(c1)NC(=O)CO2` (configuration not stated), for which the EC50 is > 80 µM (inactive).

In the case of `Cc1ccc(Cn2c(=O)n(-c3ccccc3)c(=O)c3ccc(C(=O)NCc4ccco4)cc32)cc1`, the EC50 is > 80 µM (inactive).

Take `Cc1ccccc1OCc1nc(-c2ccc(NC(=O)c3ccc4c(c3)OCO4)cc2)no1`: the EC50 entry was “inactive”.

As for `CCc1ccc(-n2c(SCC(=O)c3ccc4c(c3)NC(=O)CO4)nc3ccccc3c2=O)cc1`, the EC50 is 9.34 µM.

Take `Cc1cccnc1Nc1nc(-c2ccc(O)c(O)c2)cs1`: the EC50 is 2.29 µM.

`COc1ccc(NC(=O)C(=O)N/N=C\c2ccc(CNC(=O)C(=O)Nc3ccc(C)c(C)c3)o2)c(OC)c1`: the EC50 was 4.19 µM.

Take `CCOC(=O)c1nnn2c1nc(Nc1cccc(C(F)(F)F)c1)c1ccccc12`: the EC50 was 10 µM.

Take `CCCCNC(=O)c1ccc(Cn2c(=S)[nH]c3c([nH]c4ccc(OC)cc43)c2=O)cc1`: the EC50 was > 80 µM (inactive).

Consider `COc1ccc(C(CCNCc2ccccc2)c2ccc(F)cc2)cc1` (configuration not stated), for which the concentration for a half-maximal effect (EC50) was 10.4 µM.

Turning to `Cn1c(Cl)cnc1C1CC(=O)c2cc(Cl)ccc2O1` (configuration not stated), the EC50 is 12 µM.

On to `COc1cc(NC(=O)c2ccc(C)cc2C)ccc1NC(=O)c1cc2ccccc2o1`, for which the EC50 result was “inactive”.

Consider `O=C(Cn1c2ccc(F)cc2c2nc3n(c(=O)c21)CCS3)Nc1ccc(Cl)cc1F`, for which the EC50 is > 80 µM (inactive).

On to `CCn1c(/C=C/c2c(C)[nH]c3ccccc23)nc2ccccc2c1=O`, for which the EC50 is > 80 µM (inactive).

Turning to `Cc1ccc2nc(/C(C#N)=C/c3ccc(O)c(O)c3)[nH]c2c1`, the 50% effective concentration (EC50) is 13.7 µM.

As to `CN(C)C(=O)CCc1ccc2c3c([nH]c2c1)[C@]1(CCc2ccccc2)[C@@H](C(=O)N2CCCCC2)C[C@H](CC(=O)NCCC2=CCCCC2)C(=O)N1CC3`, the EC50 result was “inactive”.

Turning to `Cc1cc(C)c2c(c1)/C(=N/Nc1ccc(S(N)(=O)=O)cc1[N+](=O)[O-])CCC2`, the EC50 was > 80 µM (inactive).

For the compound `O=C(NN1C(=O)/C(=C/c2ccc(O)c(O)c2)SC1=S)c1ccccc1`, the concentration for a half-maximal effect (EC50) was 10.2 µM.

In the case of `COc1ccc(C(CCNCc2ccc(F)cc2)c2ccc(F)cc2)cc1` (configuration not stated), the EC50 was 13.6 µM.

With `Cc1cc(N2CCN(c3ccc([N+](=O)[O-])c4cccnc34)CC2)c2ccccc2n1`, the EC50 entry is “inactive”.

On to `COc1cc(/C=N/Nc2nc(Nc3ccccc3)nc(-n3nc(C)cc3C)n2)cc(OC)c1OC`, for which the EC50 is > 80 µM (inactive).

In the case of `CCCCN1C(=O)C(=O)c2cc(Cl)ccc21`, the EC50 result is “inactive”.

For the compound `CCOC(=O)c1sc(NC(=S)NC(=O)c2ccccc2)c(C(=O)OCC)c1C`, the EC50 result was “inactive”.

In the case of `CCOC(=O)c1c2ccc(OCC(=O)N/N=C/c3ccc(C)cc3)cc2n2ccccc12`, the EC50 was 17.3 µM.

Regarding `Nc1nc(Nc2cccc(F)c2)nc2ccccc12`, the EC50 result is “inactive”.

Take `COC(=O)c1sccc1NC(=O)c1cc(-c2cccc(C)c2)nc2ccccc12`: the EC50 is > 80 µM (inactive).

As to `CCN(CC)S(=O)(=O)c1ccc(N/N=C(\C)c2ccc3c(c2)OCO3)c([N+](=O)[O-])c1`, the EC50 entry was “inactive”.

Turning to `C[C@@H]1C[C@H]2[C@@H]3CCC4=CC(=O)C=C[C@]4(C)[C@@]3(Cl)[C@@H](O)C[C@]2(C)[C@@]1(OC(=O)c1ccco1)C(=O)CCl`, the EC50 is > 80 µM (inactive).

Take `O=c1[nH]c(-c2ccc(-c3cccc(Cl)c3)o2)nc2ccccc12`: the 50% effective concentration (EC50) is 11.9 µM.

`CCCCCCCCCCn1c2c(c(=N)c3c1CCC3)CCC2`: the EC50 is 13.5 µM.

Consider `CC1CCc2cc(F)ccc2N1C(=O)CSc1nnc2c(n1)[nH]c1ccc(F)cc12` (configuration not stated), for which the EC50 was > 80 µM (inactive).

Regarding `Cc1ccc2c(c1)C(=O)C(=O)N2Cc1ccc(C(F)(F)F)cc1`, the EC50 result is “inactive”.

On to `COc1ccc(-c2ccc(C#N)c(SCC(=O)Nc3sc4c(c3C#N)CCC4)n2)cc1OC`, for which the EC50 is > 80 µM (inactive).

`Cc1nc(NC(=O)c2cc3c(C)nn(-c4ccccc4)c3s2)sc1C(=O)Nc1ccccc1`: the EC50 result was “inactive”.

For the compound `COc1cc(SC#N)ccc1N=Cc1c(C)[nH]n(-c2ccc(C)c(C)c2)c1=O`, the EC50 is 17.4 µM.

In the case of `Cc1ccc2nc(-c3ccc(NC(=S)NC4CC(C)(C)NC(C)(C)C4)cc3)sc2c1`, the half-maximal effective concentration (EC50) is 9.04 µM.

Take `N#CCC(=O)N/N=C/c1cn(Cc2ccc3ccccc3c2)c2ccccc12`: the EC50 is 15.6 µM.

For `COc1cc(/C=N/NC(N)=O)c(Br)cc1OCC(=O)Nc1ccccc1C`, the EC50 result was “inactive”.

For `Cn1c(-c2ccccc2)c(/C=N/NC(=O)c2ccc(O)cc2)c2ccccc21`, the EC50 was > 80 µM (inactive).

As for `FC(F)(F)c1nnc2c(Sc3ccc(Cl)cc3)nc3ccccc3n12`, the EC50 is 4.67 µM.

Turning to `Cc1ccc(C(=O)Nc2cc(S(=O)(=O)N3CCOCC3)ccc2N2CCCC2)cc1`, the EC50 entry was “inactive”.

For the compound `CC1CCN(Cc2c(C(=O)N/N=C/c3ccc(C(C)(C)C)cc3)nnn2-c2nonc2N)CC1`, the EC50 was 6.58 µM.

With `O=C(Nc1nc2ccccc2s1)c1cc2c(s1)-c1ccccc1OC2`, the EC50 entry is “inactive”.

Consider `CCCCCC(=O)Nc1ccc(C(=O)N/N=C/c2ccc([N+](=O)[O-])cc2)cc1`, for which the EC50 entry is “inactive”.

For `O=C(NCCC1=CCCCC1)C(=O)NCC(c1ccco1)N1CCN(c2ccc(F)cc2)CC1` (configuration not stated), the EC50 was > 80 µM (inactive).

In the case of `O=C(Cc1ccccc1)c1c[nH]c(C(=O)C(Cl)(Cl)Cl)c1`, the EC50 result was “inactive”.

On to `C/C(CC(C)(C)C1CCCCC1)=N\NC(N)=S`, for which the EC50 was 12.1 µM.

Regarding `CCCCN(CC)S(=O)(=O)c1ccc(C(=O)N=c2sc3cc(NC(C)=O)ccc3n2C)cc1`, the concentration for a half-maximal effect (EC50) is 5.23 µM.

For `C/C(=N/NC(=O)c1ccc(Cl)s1)c1ccc(NC(=O)COc2ccc(Cl)cc2)cc1`, the EC50 entry was “inactive”.

Regarding `C=CCN1C(=O)/C(=C2/Sc3ccc(OC)cc3N2C)SC1=Nc1cccc(O)c1`, the EC50 was > 80 µM (inactive).

With `Cc1ccc(-c2nnn(CC(=O)Nc3ccc(S(=O)(=O)N4CCC(C)CC4)cc3)n2)cc1`, the EC50 result was “inactive”.

Take `CN1Cc2c(N3CCOCC3)nc3sc(C(=O)c4ccc(Br)cc4)c(N)c3c2CC1(C)C`: the EC50 was 18.7 µM.

`CC(C)CN=C(NS(=O)(=O)c1ccccc1)C(Cl)(Cl)Cl`: the EC50 was 16.2 µM.

Consider `CCc1nc(C)cn1S(=O)(=O)c1cc([N+](=O)[O-])ccc1Cl`, for which the EC50 was > 80 µM (inactive).

On to `CCOC(=O)c1nnc(-c2ccc(C)cc2)nc1Oc1ccccc1Cl`, for which the EC50 result was “inactive”.

Take `Cc1ccc2nsnc2c1NC(=O)c1ccc(-c2cc(Cl)ccc2Cl)o1`: the EC50 was > 80 µM (inactive).

As to `N#Cc1ccccc1NC(=O)COc1c(Br)cc(Br)c2cccnc12`, the EC50 entry is “inactive”.

Take `Cc1ccc2nc(NC(=O)c3ccc(-c4nc5ccccc5s4)s3)sc2c1`: the EC50 was 11 µM.

Take `CCCOC(=O)c1cccc(Nc2nc(-c3cccnc3)nc3ccccc23)c1`: the EC50 was > 80 µM (inactive).

Regarding `CCOC(=O)c1c(NC(=O)c2cc(-c3ccc(O)cc3)on2)sc(C(C)=O)c1C`, the EC50 is > 80 µM (inactive).

Turning to `CCc1ccc(OCCNc2cc(N3CCNC(C)C3)ccc2[N+](=O)[O-])cc1` (configuration not stated), the EC50 was > 80 µM (inactive).

For `CCOC(=O)/C(=C\c1ccccc1)C(=O)c1cc(C(C)=O)c(Nc2ccccc2)s1`, the concentration giving a half-maximal response (EC50) is 3.71 µM.

On to `CCOC(=O)c1nnc(-c2ccccc2)nc1Sc1c(Cl)cccc1Cl`, for which the concentration for a half-maximal effect (EC50) was 12.9 µM.

Regarding `CSC1=NC(C)(C)C=C(/C=C/c2ccc(Cl)cc2)N1`, the EC50 is 9.17 µM.

With `COc1cc(/C=C(\C#N)c2nc3ccccc3[nH]2)cc(Br)c1OCc1ccc(F)cc1`, the EC50 was 15.3 µM.

Regarding `Cc1cccc(Nc2nc3c(S(=O)(=O)c4ccccc4)nnn3c3ccccc23)c1C`, the EC50 was 12.3 µM.

For `CN(c1ccccc1)S(=O)(=O)c1cccc(C(=O)NCCc2ccc(O)c(O)c2)c1`, the EC50 was 6.18 µM.

With `CC(C)(C)c1csc(NC(=O)c2ccc(Cl)s2)n1`, the EC50 is > 80 µM (inactive).

As to `CCCCOc1ccccc1NC(=O)Cn1c(-c2nonc2N)nc2ccccc21`, the EC50 entry was “inactive”.

As for `C=CCOc1ccc2cccc(/C=N/NC(=O)c3cc4cc([N+](=O)[O-])ccc4s3)c2c1`, the EC50 result was “inactive”.

Take `O=C(Oc1ccc(F)cc1C(=O)/C=C/c1cccs1)c1cccc([N+](=O)[O-])c1`: the EC50 result was “inactive”.

Take `Cc1ccc(C(=O)C(C(=O)/C=C/c2ccccc2)=C2SCCCS2)cc1`: the EC50 was 11.9 µM.

In the case of `c1cc(SC2CCCCC2)cc(-c2nc3cnccn3c2NC2CCCCC2)c1`, the EC50 is 12.6 µM.

For the compound `c1ccc(Oc2c3ccccc3nc3ccccc23)cc1`, the EC50 result was “inactive”.

In the case of `O=CC1=C(c2ccccc2)Oc2ccccc2O1`, the EC50 is 10.3 µM.

In the case of `Cc1ccc(F)cc1N=Cc1c(O)c2ccccc2oc1=O`, the EC50 was 9.06 µM.

As for `COc1cc(/C=C/c2ccc3cccc(O)c3n2)ccc1O`, the EC50 is 7.62 µM.

For `Cc1ccc(S(=O)(=O)Cc2cc(F)c([N+](=O)[O-])cc2[N+](=O)[O-])cc1`, the EC50 is > 80 µM (inactive).

Turning to `CCC[C@@H](CN[C@@H](CNC)[C@H](C)CC)NCC1CCC(C(C)(C)C)CC1` (some centres not stated), the EC50 was 6.95 µM.

With `Cc1nn(Cc2c(Cl)cccc2Cl)c(C)c1NC(=O)c1cn(-c2ccccc2)nc1-c1ccccc1`, the EC50 is 3.67 µM.
